Results from the supplement of paper PMC10657565.
± gives the uncertainty stated by the source.

How the values were obtained:
Test in all cases: relative cell viability vs DMSO control (% of DMSO control); higher = less growth inhibition (higher viability)
Conditions in all cases: treatment time: 72 h
[1] = test system: BT-474
Method: (§1)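 Breast cancer cell lines (BT-474, HCC1806, SUM-159, SKBR-3) were seeded in triplicate in 96-well plates and treated 24 h after seeding with kinase inhibitors at 8 doses (3 nM to 30 uM). After 72 h, viability was read by CellTiter-Glo luminescence. Values were averaged over replicates and normalised to DMSO-only (0.1%) controls on each plate to give relative viability (% of DMSO).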

[2] = test system: HCC1806
Method: as §1

[3] = test system: SKBR3
Method: as §1

[4] = test system: SUM159
Method: as §1

SMILES | relative cell viability ([1]; 0.003 µM) | relative cell viability ([1]; 0.01 µM) | relative cell viability ([1]; 0.03 µM) | relative cell viability ([1]; 0.1 µM) | relative cell viability ([1]; 0.3 µM) | relative cell viability ([1]; 1 µM) | relative cell viability ([1]; 3 µM) | relative cell viability ([1]; 30 µM) | relative cell viability ([2]; 0.003 µM) | relative cell viability ([2]; 0.01 µM) | relative cell viability ([2]; 0.03 µM) | relative cell viability ([2]; 0.1 µM) | relative cell viability ([2]; 0.3 µM) | relative cell viability ([2]; 1 µM) | relative cell viability ([2]; 3 µM) | relative cell viability ([2]; 30 µM) | relative cell viability ([3]; 0.003 µM) | relative cell viability ([3]; 0.01 µM) | relative cell viability ([3]; 0.03 µM) | relative cell viability ([3]; 0.1 µM) | relative cell viability ([3]; 0.3 µM) | relative cell viability ([3]; 1 µM) | relative cell viability ([3]; 3 µM) | relative cell viability ([3]; 30 µM) | relative cell viability ([4]; 0.003 µM) | relative cell viability ([4]; 0.01 µM) | relative cell viability ([4]; 0.03 µM) | relative cell viability ([4]; 0.1 µM) | relative cell viability ([4]; 0.3 µM) | relative cell viability ([4]; 1 µM) | relative cell viability ([4]; 3 µM) | relative cell viability ([4]; 30 µM)
CNS(=O)(=O)Nc1nccc(Cc2c(C)c3ccc(Oc4ncccn4)cc3oc2=O)c1F | 98.4 ± 1.4 | 94.3 ± 1.5 | 97.2 ± 2.2 | 94.9 ± 5.3 | 92.8 ± 2.1 | 87.6 ± 5.1 | 87.6 ± 1.8 | 41.6 ± 2.2 | 90 ± 7.3 | 86.2 ± 1.2 | 78.5 ± 0.86 | 77.8 ± 2.5 | 74.9 ± 3.6 | 75.1 ± 5.3 | 73.7 ± 3.6 | 72.8 ± 4.9 |  |  |  |  |  |  |  |  |  |  |  |  |  |  |  | 
COc1cc2ncnc(Nc3ccc(O)cc3)c2cc1OC [JANEX-1] |  |  |  |  |  |  |  |  |  |  |  |  |  |  |  |  | 106 ± 3.1 | 104.9 ± 0.48 | 107 ± 1.8 | 105 ± 3.3 | 104 ± 2.6 | 101 ± 5.9 | 100 ± 1.5 | 61.4 ± 2.9 | 101 ± 6.1 | 103 ± 1.8 | 104 ± 2.1 | 102 ± 3.1 | 97.9 ± 3.6 | 96.2 ± 4.1 | 92.5 ± 1.9 | 59.2 ± 2.8
Cc1c(F)cc(C(=O)NC2CC2)cc1-c1ccc(C(=O)NCC(C)(C)C)cn1 [Losmapimod] |  |  |  |  |  |  |  |  |  |  |  |  |  |  |  |  | 105 ± 4.8 | 102 ± 7 | 101 ± 5.5 | 95.9 ± 5.4 | 95.9 ± 5.7 | 93 ± 4.7 | 93.4 ± 2.4 | 73.6 ± 2.7 | 98.8 ± 3 | 97.2 ± 1.3 | 98 ± 7 | 99 ± 5.2 | 92.7 ± 2.7 | 91.5 ± 5 | 87.5 ± 2.5 | 68.5 ± 3.9
Cn1nccc1Nc1nccc(-c2ccn([C@H](CO)c3ccc(Cl)c(F)c3)c(=O)c2)n1 [GDC-0994] | 102 ± 6.2 | 101 ± 6.1 | 97.6 ± 7.6 | 94.3 ± 3.5 | 95.3 ± 5 | 97.8 ± 9.2 | 101 ± 11 | 88.4 ± 6.7 | 97.15 ± 0.91 | 94.8 ± 2.7 | 92 ± 4.1 | 88.3 ± 6.2 | 81.5 ± 3.2 | 81.6 ± 4 | 84.9 ± 3.7 | 73.5 ± 2.6 |  |  |  |  |  |  |  |  |  |  |  |  |  |  |  | 
c1cc(OCCN2CCCCC2)cc(-c2n[nH]c3ccc(-c4nnc[nH]4)cc23)c1 [CC-401] |  |  |  |  |  |  |  |  |  |  |  |  |  |  |  |  | 104 ± 2.5 | 104 ± 5.8 | 105 ± 2.5 | 100 ± 3.7 | 99.8 ± 2.2 | 94.5 ± 4.1 | 91 ± 2.1 | 68.2 ± 3.2 | 102 ± 3.9 | 102 ± 5 | 101 ± 2.8 | 99.9 ± 2.5 | 98.4 ± 4.2 | 103 ± 2.2 | 105 ± 3.4 | 52.5 ± 2.7
C[C@@H](NC(=O)c1ncnc(N)c1Cl)c1ncc(C(=O)Nc2cc(C(F)(F)F)c(Cl)cn2)s1 [MLN-2480] | 93.9 ± 2.1 | 98.5 ± 6 | 97.3 ± 2.4 | 95.8 ± 4.7 | 88.1 ± 6.3 | 77.5 ± 3.7 | 86.6 ± 9.7 | 69.5 ± 7 | 102 ± 1.9 | 102 ± 1.8 | 103 ± 1.8 | 102 ± 2.5 | 103 ± 2.3 | 100 ± 5 | 101.2 ± 0.76 | 68 ± 4.8 |  |  |  |  |  |  |  |  |  |  |  |  |  |  |  | 
CN1CCN(c2nc(C3=C(c4c[nH]c5ccccc45)C(=O)NC3=O)c3ccccc3n2)CC1 [Sotrastaurin] | 111 ± 4.3 | 108 ± 9.6 | 104 ± 15 | 99.8 ± 21 | 91 ± 26 | 84.5 ± 32 | 76.8 ± 29 | 42.4 ± 18 | 101 ± 2.4 | 98.3 ± 3.2 | 100 ± 1.9 | 103 ± 2.2 | 103 ± 3.5 | 104 ± 3.6 | 103 ± 1.9 | 43.3 ± 5.5 |  |  |  |  |  |  |  |  |  |  |  |  |  |  |  | 
Cc1ccc(-n2nc(C(C)(C)C)cc2NC(=O)NCc2cc(F)ccc2Oc2ccc3c(cnn3CCO)c2)cc1 [Pexmetinib] | 116 ± 3.7 | 118 ± 3 | 119 ± 1.9 | 118 ± 4.1 | 116 ± 6.1 | 110 ± 5 | 105 ± 3.3 | 28 ± 0.44 | 98.7 ± 2.1 | 100 ± 3.3 | 102 ± 4.9 | 105 ± 5.4 | 106 ± 4.4 | 102 ± 3.3 | 88.3 ± 4.1 | 12.7 ± 1.3 |  |  |  |  |  |  |  |  |  |  |  |  |  |  |  | 
Cc1cc(Nc2ncc(Cl)c(Nc3ccccc3S(=O)(=O)C(C)C)n2)c(OC(C)C)cc1C1CCNCC1 [Ceritinib] |  |  |  |  |  |  |  |  |  |  |  |  |  |  |  |  | 104 ± 3 | 105 ± 2 | 102 ± 4.2 | 99.8 ± 3.8 | 96.4 ± 2.8 | 89.1 ± 5.3 | 10.7 ± 4.1 | 0.491 ± 0.1 | 103 ± 1.4 | 104 ± 2.6 | 103 ± 2.6 | 97.1 ± 3.6 | 90.8 ± 8.2 | 53.9 ± 11 | 1.44 ± 0.14 | 0.279 ± 0.078
Cc1nc(Nc2n[nH]c3c2CN(C(=O)N[C@H](CN(C)C)c2ccccc2)C3(C)C)c2sccc2n1 | 96.3 ± 2.5 | 92.7 ± 4.8 | 89.7 ± 3.5 | 86.5 ± 2.5 | 82.6 ± 5.6 | 70 ± 6.6 | 44 ± 2.3 | 21.3 ± 0.7 | 66.9 ± 11 | 46.3 ± 6 | 36.2 ± 1.9 | 32.5 ± 1.8 | 29.6 ± 1.5 | 19.4 ± 1.2 | 4.75 ± 0.17 | 2.8 ± 0.096 |  |  |  |  |  |  |  |  |  |  |  |  |  |  |  | 
COCc1c(-c2ccc(NC(=O)Nc3cc(C(F)(F)F)ccc3F)c(F)c2)c2c(N)ncnn2c1CN1CCOCC1 [ACTB-1003] |  |  |  |  |  |  |  |  |  |  |  |  |  |  |  |  | 105 ± 0.92 | 104 ± 2.9 | 107 ± 3.9 | 106 ± 2.7 | 107 ± 3.3 | 98.8 ± 2 | 78.2 ± 4 | 3.14 ± 0.2 | 101.4 ± 0.75 | 99.02 ± 0.34 | 96.9 ± 4.4 | 98.6 ± 1.8 | 91.7 ± 2.9 | 73.4 ± 5.4 | 39.5 ± 3.3 | 0.887 ± 0.066
CN[C@@H]1C[C@H]2O[C@@](C)([C@@H]1OC)n1c3ccccc3c3c4c(c5c6ccccc6n2c5c31)C(=O)N[C@H]4O [UCN-01] | 97.4 ± 3.3 | 89.9 ± 2 | 85.5 ± 2.9 | 85.9 ± 11 | 56.9 ± 3.2 | 34.5 ± 3.3 | 15.9 ± 0.39 | 6.69 ± 0.4 | 97.8 ± 4.1 | 76.3 ± 6.7 | 36.7 ± 12 | 9.05 ± 0.96 | 8.6 ± 0.48 | 7.53 ± 0.63 | 2.19 ± 0.3 | 0.853 ± 0.066 |  |  |  |  |  |  |  |  |  |  |  |  |  |  |  | 
C[C@]12O[C@H](C[C@]1(O)CO)n1c3ccccc3c3c4c(c5c6ccccc6n2c5c31)CNC4=O [Lestaurtinib] | 87.8 ± 1.5 | 77.2 ± 3.4 | 73.6 ± 4.1 | 66.8 ± 7.2 | 59.5 ± 2.3 | 49.5 ± 2.6 | 37.9 ± 0.67 | 1.31 ± 0.099 | 83.42 ± 0.79 | 63.1 ± 3 | 43.6 ± 5.3 | 16 ± 0.76 | 7.81 ± 0.93 | 3.73 ± 0.28 | 2.9 ± 0.12 | 0.918 ± 0.075 |  |  |  |  |  |  |  |  |  |  |  |  |  |  |  | 
Cn1c(=O)c(F)c(Nc2ccc(I)cc2F)c2c(=O)n(C[C@@H](O)CO)cnc21 [TAK-733] | 104 ± 16 | 103 ± 7.3 | 104 ± 11 | 94.8 ± 12 | 99.5 ± 11 | 93 ± 14 | 92 ± 9.1 | 36.3 ± 9.5 | 77.8 ± 5.2 | 75.1 ± 5.4 | 73.8 ± 3.5 | 72.7 ± 4.1 | 71.6 ± 2.5 | 71.6 ± 3.9 | 70.3 ± 3.3 | 39.2 ± 3.9 |  |  |  |  |  |  |  |  |  |  |  |  |  |  |  | 
